In publication PMC8253220, “Molecular design, synthesis and in vitro biological evaluation of thienopyrimidine–hydroxamic acids as chimeric kinase HDAC inhibitors: a challenging approach to combat cancer” (Journal of Enzyme Inhibition and Medicinal Chemistry, 2021):
Values joined by “and” are separate entries in the source; they are usually repeats but may differ in a detail not shown here. Equal values may be shown once.

How the values were obtained:
M14 = test: NCI one-dose screen; format: cell-based, human; settings: Melanoma M14, 10 µM single dose
Experimental: (§1) All of the synthesised structures were selected and submitted to NCI based on computer modelling techniques and the degree of diversity of structures for the evaluation of their antiproliferative activity. The 20 synthesised compounds were selected with their respective NCI codes [NCS D-820157- NCS D-820176] for the inhibition percent assay at an initial single dose of 10 μM on the full NCI 60 cell panel, where the mean graph of the percent growth for all compounds on the full NCI cell panel is evaluated, compared to the untreated control cells (Supplementary Material). In vitro cell line inhibition % of all synthesised compounds is represented in (Table 1 of Supplementary Material).
(§2) All of the synthesised compounds (20) were submitted to NCI and selected for in vitro anticancer assay against a panel of 60 cancer cell lines. The methodology of assay and calculations is as reported.

HCT-15 = test: NCI one-dose screen; format: cell-based, human; settings: Colon HCT-15, 10 µM single dose
Experimental: as §1, §2

NCI-H23 = test: NCI one-dose screen; format: cell-based, human; settings: for Growth Percent: NSCLC NCI-H23, 10 µM single dose
Experimental: as §1, §2

T-47D = test: NCI one-dose screen; format: cell-based, human; settings: Breast T-47D, 10 µM single dose
Experimental: as §1, §2

IGROV1 = test: NCI one-dose screen; format: cell-based, human; settings: Ovarian IGROV1, 10 µM single dose
Experimental: as §1, §2

UACC-257 = test: NCI one-dose screen; format: cell-based, human; settings: Melanoma UACC-257, 10 µM single dose
Experimental: as §1, §2

MDA-MB-435 = test: NCI one-dose screen; format: cell-based, human; settings: Melanoma MDA-MB-435, 10 µM single dose
Experimental: as §1, §2

SK-OV-3 = test: NCI one-dose screen; format: cell-based, human; settings: Ovarian SK-OV-3, 10 µM single dose
Experimental: as §1, §2

K-562 = test: NCI one-dose screen; format: cell-based, human; settings: Leukemia K-562, 10 µM single dose
Experimental: as §1, §2

EGFR = EGFR (Homo sapiens, UniProt P00533); test: In vitro EGFR tyrosine kinase inhibitory assay (Z'-LYTE, SelectScreen); format: biochemical; settings: 10 µM single dose
Experimental: (§3) The target compounds were evaluated for their in vitro inhibitory activities against EGFR, VEGFR-2, and HDAC6. The EGFR and VEGFR-2 inhibitory assays were performed at Thermo Fischer Scientific, Madison, WI, USA (SelectScreenServices@thermofisher.com). The HDAC inhibitory assays were performed at BPS Bioscience, San Diego, CA, USA (www.bpsbioscience.com). Initially, all of the synthesised target compounds were evaluated for their percent inhibitory activity against EGFR, VEGFR-2, and HDACs at 10 µM single dose concentration, in which their mean percent inhibition is summarised in (Figure 5, Tables 1 and [2]). Representative compounds were evaluated for their percent inhibitory activity against EGFR and VEGFR-2 at 6 different concentrations (0.1 nM, 1 nM, 10 nM, 100 nM, 1 µM, 10 µM) to subsequently calculate their IC50 values (Table 3). Additionally, all of the synthesised target compounds were submitted to the National Cancer Institute “NCI” Bethesda, Maryland, USA (www.dtp.nci.nih.gov), to evaluate theirs in vitro antiproliferative activities against NCI 60- cancer cell line panel.
(§4) In vitro enzyme inhibition determination for the synthesised compounds was carried out in Thermo Fischer Scientific, Madison, WI, USA (SelectScreenServices@thermofisher.com). The EGFR and VEGFR-2 tyrosine kinase % inhibitory activity at a single-dose concentration of 10 µM was performed initially then representative compounds were evaluated at single-dose concentrations of (0.1 nM, 1 nM, 10 nM, 100 nM, 1 µM) using ZYLTE technology. A fluorescence-based, coupled-enzyme format is employed in the biochemical assay and depends on the sensitivity of proteolytic cleavage to non-phosphorylated and phosphorylated peptides. Then IC50 values for selected compounds were determined by GraphPad Prism at Misr international university.

full NCI 60 cell panel = test: NCI one-dose screen, whole panel statistics; format: cell-based, human; settings: 1.00E-5 Molar; for Mean Growth Percent: mean over panel
Experimental: as §1, §2

VEGFR-2 = VEGFR-2 (Homo sapiens, UniProt P35968); test: In vitro VEGFR-2 tyrosine kinase inhibitory assay (Z'-LYTE, SelectScreen); format: biochemical
Experimental: as §3, §4

Hela nuclear extracts = test: Hela nuclear extract HDAC inhibitor assay (BPS Bioscience); format: biochemical; settings: 10 µM
Experimental: The purpose of the study is to determine the effects of twenty compounds from Misr International University on the enzymatic activities of hela nuclear extracts using an in vitro […]
7a Solution 10mM DMSO 10 10 % DMSO in
7b Solution 10mM DMSO 10 10 % DMSO in
7d Solution 10mM DMSO 10 10 % DMSO in
2.3 Experimental Conditions
2.3.1 Enzymes and Substrates
Assay Catalog # Substrate
Hela Nuclear Exctract 50053 10 µM HDAC Substrate 3
For the hela nuclear extracts, hela cells were grown to 90 % confluency. Hela nuclear extracts were prepared from the Nuclear Extraction Kit from abcam (Catalog # ab113474). The final total protein concentration was calculated to be 2.4 µg/µl. From this, the hela nuclear extracts was diluted 20-fold in HDAC assay buffer and 5 µl of the dilution was added to a 50 µl reaction.
The compounds are dissolved in DMSO. A series of dilutions of the compounds were prepared with 10% DMSO in HDAC assay buffer and 5 µl of the dilution was added to a 50 µl reaction so that the final concentration of DMSO is 1 % in all of […]
The enzymatic reactions for the hela nuclear extract were conducted in duplicate at 37 °C for 60 minutes in a 50 µl mixture containing HDAC assay buffer, 5 µg BSA, an HDAC substrate (see 2.3.1), hela nuclear extract, and a test compound (see 2.2).
After enzymatic reactions, 50μl of 2 x HDAC Developer was added to each well for the hela nuclear extract and the plate was incubated at room temperature for an additional 15 […]
Fluorescence intensity was measured at an excitation of 360 nm and an emission of 460 nm using a Tecan Infinite M1000 microplate reader.
Hela nuclear extract activity assays were performed in duplicates at each concentration.
The fluorescent intensity data were analyzed using the computer software, Graphpad Prism. In the absence of the compound, the fluorescent intensity (Ft) in each data set was defined as 100% activity. In the absence of hela nuclear extract, the fluorescent intensity (Fb) in each data set was defined as 0% activity. The percent activity in the presence of each compound was calculated according to the following equation: %activity = (F-Fb)/(Ft-Fb), where F= the fluorescent intensity in the presence of the compound.
The values of percentage activity were plotted on a bar graph.

Chain of VEGFR-2 (P35968 20-1356): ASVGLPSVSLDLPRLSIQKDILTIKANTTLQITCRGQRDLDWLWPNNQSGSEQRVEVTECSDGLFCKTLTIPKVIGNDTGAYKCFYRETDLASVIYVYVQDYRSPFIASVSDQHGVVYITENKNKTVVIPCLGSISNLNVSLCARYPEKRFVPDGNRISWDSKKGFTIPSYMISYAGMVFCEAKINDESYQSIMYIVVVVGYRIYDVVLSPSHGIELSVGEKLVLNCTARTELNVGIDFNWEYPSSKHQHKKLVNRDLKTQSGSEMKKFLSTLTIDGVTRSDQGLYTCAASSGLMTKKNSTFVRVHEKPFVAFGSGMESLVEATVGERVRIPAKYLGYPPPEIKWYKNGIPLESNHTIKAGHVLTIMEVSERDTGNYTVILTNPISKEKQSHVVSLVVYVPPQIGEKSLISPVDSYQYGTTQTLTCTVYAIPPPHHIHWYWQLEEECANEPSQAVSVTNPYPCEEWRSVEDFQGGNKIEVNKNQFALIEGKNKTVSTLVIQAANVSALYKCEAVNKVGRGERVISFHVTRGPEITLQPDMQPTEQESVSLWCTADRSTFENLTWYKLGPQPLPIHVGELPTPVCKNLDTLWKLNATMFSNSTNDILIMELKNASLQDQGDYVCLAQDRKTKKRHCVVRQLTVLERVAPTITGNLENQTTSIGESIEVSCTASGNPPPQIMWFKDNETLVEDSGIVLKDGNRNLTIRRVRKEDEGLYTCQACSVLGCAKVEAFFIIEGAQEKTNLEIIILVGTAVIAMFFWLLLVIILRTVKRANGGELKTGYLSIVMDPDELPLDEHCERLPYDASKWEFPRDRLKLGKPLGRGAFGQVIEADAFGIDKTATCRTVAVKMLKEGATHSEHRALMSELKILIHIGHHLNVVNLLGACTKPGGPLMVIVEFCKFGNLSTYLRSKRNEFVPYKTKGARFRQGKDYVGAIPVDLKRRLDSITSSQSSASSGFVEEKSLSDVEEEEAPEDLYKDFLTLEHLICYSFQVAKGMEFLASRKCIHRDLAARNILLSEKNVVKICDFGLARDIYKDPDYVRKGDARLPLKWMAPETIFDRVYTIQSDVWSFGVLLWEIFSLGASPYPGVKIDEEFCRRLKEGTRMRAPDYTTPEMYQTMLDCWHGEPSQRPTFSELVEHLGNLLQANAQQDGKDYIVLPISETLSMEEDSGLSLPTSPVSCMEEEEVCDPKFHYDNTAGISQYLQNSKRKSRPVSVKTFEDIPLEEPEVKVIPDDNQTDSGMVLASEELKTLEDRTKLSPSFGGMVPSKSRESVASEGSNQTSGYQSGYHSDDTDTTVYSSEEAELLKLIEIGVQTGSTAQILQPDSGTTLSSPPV
Chain of EGFR (P00533 25-1210): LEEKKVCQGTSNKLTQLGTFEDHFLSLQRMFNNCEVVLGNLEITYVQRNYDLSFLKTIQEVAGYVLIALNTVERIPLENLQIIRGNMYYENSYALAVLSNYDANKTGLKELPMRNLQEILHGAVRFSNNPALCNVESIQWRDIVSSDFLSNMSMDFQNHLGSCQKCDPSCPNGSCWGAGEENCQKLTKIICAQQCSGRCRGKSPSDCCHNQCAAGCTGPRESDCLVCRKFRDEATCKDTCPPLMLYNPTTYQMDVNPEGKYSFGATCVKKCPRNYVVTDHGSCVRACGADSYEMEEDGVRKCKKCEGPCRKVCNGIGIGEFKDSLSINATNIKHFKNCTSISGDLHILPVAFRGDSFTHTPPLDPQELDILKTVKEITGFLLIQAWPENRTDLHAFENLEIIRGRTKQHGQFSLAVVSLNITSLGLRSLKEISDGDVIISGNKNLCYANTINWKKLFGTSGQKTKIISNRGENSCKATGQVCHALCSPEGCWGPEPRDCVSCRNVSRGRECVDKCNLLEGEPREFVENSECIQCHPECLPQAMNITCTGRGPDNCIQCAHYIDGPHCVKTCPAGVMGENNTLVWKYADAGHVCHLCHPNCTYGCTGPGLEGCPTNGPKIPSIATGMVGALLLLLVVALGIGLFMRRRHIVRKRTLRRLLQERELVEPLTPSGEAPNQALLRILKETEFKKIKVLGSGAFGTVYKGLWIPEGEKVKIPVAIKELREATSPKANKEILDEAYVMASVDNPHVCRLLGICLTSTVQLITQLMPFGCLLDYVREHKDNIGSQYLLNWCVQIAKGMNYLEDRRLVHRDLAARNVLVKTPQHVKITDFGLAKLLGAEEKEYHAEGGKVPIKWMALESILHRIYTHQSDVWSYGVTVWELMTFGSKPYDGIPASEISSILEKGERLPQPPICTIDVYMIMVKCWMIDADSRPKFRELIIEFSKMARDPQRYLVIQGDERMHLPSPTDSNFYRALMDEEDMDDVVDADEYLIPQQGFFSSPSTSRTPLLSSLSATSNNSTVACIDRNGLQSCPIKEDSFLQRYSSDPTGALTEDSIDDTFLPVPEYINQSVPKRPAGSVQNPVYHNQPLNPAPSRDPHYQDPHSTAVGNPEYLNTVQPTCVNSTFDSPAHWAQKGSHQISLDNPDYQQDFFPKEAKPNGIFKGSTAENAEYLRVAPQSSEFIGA

| Structure (SMILES) | melting point [°C] | Growth Percent (M14) | Growth Percent (HCT-15) | Growth Percent (NCI-H23) | Growth Percent (T-47D) | Growth Percent (IGROV1) | Growth Percent (UACC-257) | Growth Percent (MDA-MB-435) | Growth Percent (SK-OV-3) | Growth Percent (K-562) | inhibition at 10 µM (EGFR) [%] | Delta (one dose mean graph) (full NCI 60 cell panel) [%] | Range (one dose mean graph) (full NCI 60 cell panel) [%] | Mean Growth Percent (full NCI 60 cell panel) [%] | inhibition at 10 µM (VEGFR-2; 10 µM single dose) [%] | % Inhibition Hela Nuclear Extracts (Hela nuclear extracts) [%] | also measured |
| --- | --- | --- | --- | --- | --- | --- | --- | --- | --- | --- | --- | --- | --- | --- | --- | --- | --- |
| Cc1c(C(=O)NO)sc2ncnc(Nc3ccc(F)c(Cl)c3)c12 [Compound 15d, 4–(3-chloro-4-fluorophenylamino)-N-hydroxy-5-methylthieno[2,3-d]pyrimidine-6-carboxamide] | 320 | 110.2% and 110.24% | 96.0% and 96.09% | 95.7% and 95.72% | 95.4% and 95.46% | 103.9% and 103.95% | 109.9% and 109.91% | 101.0% and 101.03% | 114.4% and 114.45% | 105.3% and 105.38% | 97 | 24.43 | 43.45 | 101.50 | 54 | 4 |  |
| Cc1c(C(=O)NO)sc2ncnc(Nc3ccc(NC(=O)Nc4cccc(C(F)(F)F)c4)cc3)c12 [Compound 7c, 1–(4-(6-(hydroxycarbamoyl)-5-methylthieno[2,3-d]pyrimidin-4-ylamino)phenyl)-3–(3-(trifluoromethyl)phenyl)urea] | 285 | 102.4% and 102.43% | 97.7% and 97.77% | 88.9% and 88.92% | 96.3% and 96.39% | 97.6% and 97.68% | 106.3% and 106.33% | 100.6% and 100.67% | 113.0% and 113.07% | 91.7% and 91.72% | 11 | 43.18 | 65.35 | 97.22 | 104 | 3 | inhibition at 10 µM (NCI-H23; Homo sapiens, NSCLC NCI-H23, 10 μM): 11.1%; inhibition at 0.0001 µM (VEGFR-2; 0.1 nM compound, 10 μM ATP, read-out: % Inhibition mean, KDR (VEGFR2)): 6%; inhibition at 0.001 µM (VEGFR-2; 1 nM compound, 10 μM ATP, read-out: % Inhibition mean, KDR (VEGFR2)): 6%; inhibition at 0.01 µM (VEGFR-2; 10 nM compound, 10 μM ATP, read-out: % Inhibition mean, KDR (VEGFR2)): 2%; inhibition at 0.1 µM (VEGFR-2; 100 nM compound, 10 μM ATP, read-out: % Inhibition mean, KDR (VEGFR2)): 36%; inhibition at 1 µM (VEGFR-2; 1000 nM compound, 10 μM ATP, read-out: % Inhibition mean, KDR (VEGFR2)): 90%; Mean % inhibition VEGFR-2 (VEGFR-2; 10 µM single dose): 100%; IC50 (VEGFR-2; read-out: IC50 in enzyme assays VEGFR-2): 191 nM |
| Cc1c(C(=O)NCCC(=O)NO)sc2ncnc(Nc3ccc(F)c(Cl)c3)c12 [Compound 19d, 4–(3-chloro-4-fluorophenylamino)-N-(3-(hydroxyamino)-3-oxopropyl)-5-methylthieno[2,3-d]pyrimidine-6-carboxamide] | 276 | 104.7% and 104.71% | 101.5% and 101.58% | 100.6% | 106.5% and 106.56% | 106.2% and 106.28% | 99.7% and 99.74% | 101.8% and 101.82% | 129.2% and 129.24% | 113.3% | 96 | 19.56 | 44.43 | 104.37 | 26 | 2 |  |
| COc1cccc(NC(=O)Nc2ccc(Nc3ncnc4sc(C(=O)NO)c(C)c34)cc2)c1 [Compound 7b, 1–(4-(6-(hydroxycarbamoyl)-5-methylthieno[2,3-d]pyrimidin-4-ylamino)phenyl)-3–(3-methoxyphenyl)urea] | > 200 | 101.0% and 101.01% | 99.0% and 99.07% | 98.8% and 98.89% | 99.6% and 99.67% | 106.5% and 106.51% | 100.8% and 100.87% | 101.5% and 101.59% | 128.5% and 128.59% | 108.5% and 108.57% | 39 | 18.14 | 45.12 | 101.61 | 78 | 2 |  |
